Measured values from patent US20250041248A1, “ALZ-801 FOR USE IN TREATING ALZHEIMER'S DISEASE” (Alzheon, Inc., priority 2021, published 2025).
“Also recorded” adds a separate entry of the source.

What was measured:
[1] = Steady-state plasma tramiprosate pharmacokinetics, expanded access subject, TID and QID; assay type: in vivo, human; settings: BID vs TID vs QID, 265 mg per dose
Text: The steady state pharmacokinetics of the TID and QID dosing regimen in the patient has been assayed for area under the curve (AUC) and maximum concentration (Cmax) of plasma tramiprosate (the active form of ALZ-801) and compared to BID dosing values in a population of patients in a Phase 2 human clinical trial of ALZ-801. Once the patient reaches steady state on a particular dosing regimen (any time after day 7 of a particular dosing regimen), a blood sample was collected just prior to the administration of a dose of AZL-801 and then again at 1, 2 and 4 hours post-administration of that dose. Plasma was isolated from the sample by centrifugation and the plasma samples were frozen and shipped to a bioanalytical lab for determination of tramiprosate concentrations (active moiety of ALZ-801) and calculation of AUC and Cmax. The values obtained from the plasma were then used to calculate projected brain AUC.

[2] = system: subject with major neurocognitive disorder of the Alzheimer type, APOE4 homozygous; assay: Compassionate use study (Expanded Access IND), clinical response and tolerability; assay type: in vivo, human; settings: n=1
Method: A subject who received a diagnosis of major neurocognitive disorder of the Alzheimer type was treated with ALZ-801 as part of a compassionate use study. The subject was a APOE4 homozygous and had received standard cognitive enhancing medications and was enrolled in a trial of an amyloid immunotherapy agent, but without benefit, and had no treatment options.
The subject was orally administered ALZ-801 at a dose of 265 mg BID for approximately 14 months (61 weeks, 2 days). […] For example, their motor skills improved as they made efforts to brush their teeth, get dressed, and bathe […]. They also were able to hold a phone to their […] and was walking and eating better. They were not able or willing to do the above prior to treatment with 265 mg BID ALZ-801. Further, their mood was noticeably more cheerful and content, and their verbal communication advanced. However, by the later end of the first 12-months of treatment, the improvement in the subject's symptoms plateaued and there was a decline in their cognitive status. They became apathetic, less verbal, and could no longer follow instructions.
At 62 weeks, 6 days of treatment, the dosage of ALZ-801 was increased from 265 mg BID to 265 mg TID. Remarkably, their plateau and decline in cognition ended upon commencement of the 265 mg TID dosage regimen. They were more talkative, happier, and not only completed the tasks they accomplished while on 265 mg BID ALZ-801, but improved beyond that. They understand the context of conversation and behave in a more “normal” or “natural” manner. […] A similar plateau or decline in cognitive status as observed with an ALZ-801 dosage of 265 mg BID began to manifest approximately 12 months after the beginning of the 265 mg TID ALZ-801 dosing. The subject remained on 265 mg TID ALZ-801 for approximately three more months (15 months total) until their dosage was increased to 265 mg QID (four time a day) ALZ-801, which they have maintained for the past seven months. […] Their caretakers have noted that the patient's disposition and alertness has improved, they are more responsive, more cooperative and has improved interaction with the caretakers.

Compound: CC(C)[C@H](N)C(=O)NCCCS(=O)(=O)O [ALZ-801, valyl-3-amino-1-propanesulfonic acid]
- dose proportionality of plasma AUC and Cmax (tramiprosate) [1]: dose proportional increases in plasma AUC and Cmax
- duration of improvement and stabilization before plateau/decline ([2]; oral 265 mg BID): about 58 weeks
- tolerability / side effects ([2]; oral 265 mg QID): well-tolerated with no associated nausea or noticeable side effects; also recorded: well tolerated
- time to plateau or decline in cognitive status after start of dosing ([2]; oral 265 mg TID): approximately 12 months
- tolerability / side effects ([2]; oral 265 mg TID): without out noticeable side effects; also recorded: well-tolerated
